Measured values published in patent US20210254272A1, “TEXTILES HAVING ANTIMICROBIAL PROPERTIES” (Livinguard AG, priority 2015, published 2021).

Assay: Leaching test: 100 g fabric soaked in 10 liters stagnant distilled water, 3 days (72 hours)
Assay type: physicochemical
Details: for Leaching of active ingredients: exhaust 80° C. 60 min, cured 180° C. 2 min, post wash
Summary of the method: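 Test and control fabrics were soaked together in a closed jar. Leached substances in the water were then determined by standard analytical methods.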

CCCC1COC(Cn2cncn2)(c2ccc(Cl)cc2Cl)O1 (centres unmarked) [Propiconazole, propiconazole]
Leaching of active ingredients (in ppm) (0.2% each in mixture (o.w.f), exhaust 80° C., 60 min, curing 180° C., 2 min, unwashed): 4 ppm
Leaching of active ingredients (in ppm) (0.5% each in mixture (o.w.f), exhaust 80° C., 60 min, curing 180° C., 2 min, unwashed): 6 ppm
Leaching of active ingredients (in ppm) (1.0% each in mixture (o.w.f), exhaust 80° C., 60 min, curing 180° C., 2 min, unwashed): 8 ppm
Leeching in ppm (Exhaust + Wash + pad + Wash, exhaust 0.1% o.w.f. each in mixture, 1 gm/liter pad): 0.5 ppm
Leeching in ppm (Exhaust + Wash + pad + Wash, exhaust 0.1% o.w.f. each in mixture, 5 gm/liter pad): 0.7 ppm
Leeching in ppm (Exhaust + Wash + pad + Wash, exhaust 0.1% o.w.f. each in mixture, 10 gm/liter pad): 0.6 ppm
Leeching in ppm (Exhaust + Wash + pad + Wash, exhaust 0.25% o.w.f. each in mixture, 1 gm/liter pad): 7 ppm
Leeching in ppm (Exhaust + Wash + pad + Wash, exhaust 0.25% o.w.f. each in mixture, 5 gm/liter pad): 7 ppm
Leeching in ppm (Exhaust + Wash + pad + Wash, exhaust 0.25% o.w.f. each in mixture, 10 gm/liter pad): 20 ppm
Leeching in ppm (Exhaust + Wash + pad + Wash, exhaust 0.5 (% o.w.f) each in mixture, 1 gm/liter pad): 5 ppm
Leeching in ppm (Exhaust + Wash + pad + Wash, exhaust 0.5 (% o.w.f) each in mixture, 5 gm/liter pad): 15 ppm
Leeching in ppm (Exhaust + Wash + pad + Wash, exhaust 0.5 (% o.w.f) each in mixture, 10 gm/liter pad): 26 ppm
Leeching in ppm (Exhaust + Wash + pad + Wash, exhaust 1.0% o.w.f. each in mixture, 1 gm/liter pad): 10 ppm
Leeching in ppm (Exhaust + Wash + pad + Wash, exhaust 1.0% o.w.f. each in mixture, 5 gm/liter pad): 19 ppm
Leeching in ppm (Exhaust + Wash + pad + Wash, exhaust 1.0% o.w.f. each in mixture, 10 gm/liter pad): 34 ppm
Leeching in ppm (Exhaust + pad + Wash, exhaust 0.1% o.w.f. each in mixture, 1 gm/liter pad): 149 ppm
Leeching in ppm (Exhaust + pad + Wash, exhaust 0.1% o.w.f. each in mixture, 5 gm/liter pad): 241 ppm
Leeching in ppm (Exhaust + pad + Wash, exhaust 0.1% o.w.f. each in mixture, 10 gm/liter pad): 256 ppm
Leeching in ppm (Exhaust + pad + Wash, exhaust 0.25% o.w.f. each in mixture, 1 gm/liter pad): 231 ppm
Leeching in ppm (Exhaust + pad + Wash, exhaust 0.25% o.w.f. each in mixture, 5 gm/liter pad): 259 ppm
Leeching in ppm (Exhaust + pad + Wash, exhaust 0.25% o.w.f. each in mixture, 10 gm/liter pad): 546 ppm
Leeching in ppm (Exhaust + pad + Wash, exhaust 0.5 (% o.w.f) each in mixture, 1 gm/liter pad): 475 ppm
Leeching in ppm (Exhaust + pad + Wash, exhaust 0.5 (% o.w.f) each in mixture, 5 gm/liter pad): 538 ppm
Leeching in ppm (Exhaust + pad + Wash, exhaust 0.5 (% o.w.f) each in mixture, 10 gm/liter pad): 649 ppm
Leeching in ppm (Exhaust + pad + Wash, exhaust 1.0% o.w.f. each in mixture, 1 gm/liter pad): 578 ppm
Leeching in ppm (Exhaust + pad + Wash, exhaust 1.0% o.w.f. each in mixture, 5 gm/liter pad): 689 ppm
Leeching in ppm (Exhaust + pad + Wash, exhaust 1.0% o.w.f. each in mixture, 10 gm/liter pad): 853 ppm
Leeching in ppm (Exhaust + pad, exhaust 0.1% o.w.f. each in mixture, 1 gm/liter pad): 194 ppm
Leeching in ppm (Exhaust + pad, exhaust 0.1% o.w.f. each in mixture, 5 gm/liter pad): 284 ppm
Leeching in ppm (Exhaust + pad, exhaust 0.1% o.w.f. each in mixture, 10 gm/liter pad): 345 ppm
Leeching in ppm (Exhaust + pad, exhaust 0.25% o.w.f. each in mixture, 1 gm/liter pad): 317 ppm
Leeching in ppm (Exhaust + pad, exhaust 0.25% o.w.f. each in mixture, 5 gm/liter pad): 346 ppm
Leeching in ppm (Exhaust + pad, exhaust 0.25% o.w.f. each in mixture, 10 gm/liter pad): 354 ppm
Leeching in ppm (Exhaust + pad, exhaust 0.5 (% o.w.f) each in mixture, 1 gm/liter pad): 365 ppm
Leeching in ppm (Exhaust + pad, exhaust 0.5 (% o.w.f) each in mixture, 5 gm/liter pad): 456 ppm
Leeching in ppm (Exhaust + pad, exhaust 0.5 (% o.w.f) each in mixture, 10 gm/liter pad): 867 ppm
Leeching in ppm (Exhaust + pad, exhaust 1.0% o.w.f. each in mixture, 1 gm/liter pad): 596 ppm
Leeching in ppm (Exhaust + pad, exhaust 1.0% o.w.f. each in mixture, 5 gm/liter pad): 810 ppm
Leeching in ppm (Exhaust + pad, exhaust 1.0% o.w.f. each in mixture, 10 gm/liter pad): 1456 ppm
Leeching in ppm (Exhaust +Wash + pad, exhaust 0.1% o.w.f. each in mixture, 1 gm/liter pad): 89 ppm
Leeching in ppm (Exhaust +Wash + pad, exhaust 0.1% o.w.f. each in mixture, 5 gm/liter pad): 154 ppm
Leeching in ppm (Exhaust +Wash + pad, exhaust 0.1% o.w.f. each in mixture, 10 gm/liter pad): 232 ppm
Leeching in ppm (Exhaust +Wash + pad, exhaust 0.25% o.w.f. each in mixture, 1 gm/liter pad): 184 ppm
Leeching in ppm (Exhaust +Wash + pad, exhaust 0.25% o.w.f. each in mixture, 5 gm/liter pad): 215 ppm
Leeching in ppm (Exhaust +Wash + pad, exhaust 0.25% o.w.f. each in mixture, 10 gm/liter pad): 321 ppm
Leeching in ppm (Exhaust +Wash + pad, exhaust 0.5 (% o.w.f) each in mixture, 1 gm/liter pad): 369 ppm
Leeching in ppm (Exhaust +Wash + pad, exhaust 0.5 (% o.w.f) each in mixture, 5 gm/liter pad): 413 ppm
Leeching in ppm (Exhaust +Wash + pad, exhaust 0.5 (% o.w.f) each in mixture, 10 gm/liter pad): 578 ppm
Leeching in ppm (Exhaust +Wash + pad, exhaust 1.0% o.w.f. each in mixture, 1 gm/liter pad): 469 ppm
Leeching in ppm (Exhaust +Wash + pad, exhaust 1.0% o.w.f. each in mixture, 5 gm/liter pad): 574 ppm
Leeching in ppm (Exhaust +Wash + pad, exhaust 1.0% o.w.f. each in mixture, 10 gm/liter pad): 657 ppm
Leaching of active ingredients (in ppm) (exhaust 60° C., solution dosage 1% o.w.f, process time 60 min): 24 ppm
Leaching of active ingredients (in ppm) (exhaust 60° C., solution dosage 1% o.w.f, process time 90 min): 12 ppm
Leaching of active ingredients (in ppm) (exhaust 60° C., solution dosage 1% o.w.f, process time 120 min): 13 ppm
Leaching of active ingredients (in ppm) (exhaust 60° C., solution dosage 1% o.w.f, process time 180 min): 13 ppm
Leaching of active ingredients (in ppm) (exhaust 60° C., solution dosage 1% o.w.f, process time 240 min): 15 ppm
Leaching of active ingredients (mixture 0.2% o.w.f. each): 0.3 ppm
Leaching of active ingredients (mixture 0.5% o.w.f. each): 0.3 ppm
Leaching of active ingredients (mixture 1% o.w.f. each): 0.9 ppm
Leaching of active ingredients (in ppm) (exhaust 80° C., 1% o.w.f, 60 min, curing 170° C., curing dwell time 0.5 min): 28 ppm
Leaching of active ingredients (in ppm) (exhaust 80° C., 1% o.w.f, 60 min, curing 170° C., curing dwell time 1.0 min): 24 ppm
Leaching of active ingredients (in ppm) (exhaust 80° C., 1% o.w.f, 60 min, curing 170° C., curing dwell time 1.5 min): 21 ppm
Leaching of active ingredients (in ppm) (exhaust 80° C., 1% o.w.f, 60 min, curing 170° C., curing dwell time 2.0 min): 15 ppm
Leaching of active ingredients (in ppm) (exhaust 80° C., 1% o.w.f, 60 min, curing 170° C., curing dwell time 2.5 min): 17 ppm
Leaching of active ingredients (in ppm) (exhaust 80° C., 1% o.w.f, 60 min, curing 170° C., curing dwell time 3.0 min): 17 ppm
Leaching of active ingredients (in ppm) (exhaust 80° C., 1% o.w.f, 60 min, curing 180° C., curing dwell time 0.5 min): 24 ppm
Leaching of active ingredients (in ppm) (exhaust 80° C., 1% o.w.f, 60 min, curing 180° C., curing dwell time 1.0 min): 12 ppm
Leaching of active ingredients (in ppm) (exhaust 80° C., 1% o.w.f, 60 min, curing 180° C., curing dwell time 1.5 min): 13 ppm
Leaching of active ingredients (in ppm) (exhaust 80° C., 1% o.w.f, 60 min, curing 180° C., curing dwell time 2.0 min): 3 ppm
Leaching of active ingredients (in ppm) (exhaust 80° C., 1% o.w.f, 60 min, curing 180° C., curing dwell time 2.5 min): 13 ppm
Leaching of active ingredients (in ppm) (exhaust 80° C., 1% o.w.f, 60 min, curing 180° C., curing dwell time 3.0 min): 13 ppm
Leaching of active ingredients (in ppm) (exhaust 80° C., 1% o.w.f, 60 min, curing dwell time at 190° C. (title): 0.5 min): 23 ppm
Leaching of active ingredients (in ppm) (exhaust 80° C., 1% o.w.f, 60 min, curing dwell time at 190° C. (title): 1.0 min): 12 ppm
Leaching of active ingredients (in ppm) (exhaust 80° C., 1% o.w.f, 60 min, curing dwell time at 190° C. (title): 1.5 min): 12 ppm
Leaching of active ingredients (in ppm) (exhaust 80° C., 1% o.w.f, 60 min, curing dwell time at 190° C. (title): 2.0 min): 10 ppm
Leaching of active ingredients (in ppm) (exhaust 80° C., 1% o.w.f, 60 min, curing dwell time at 190° C. (title): 2.5 min): 27 ppm
Leaching of active ingredients (in ppm) (exhaust 80° C., 1% o.w.f, 60 min, curing dwell time at 190° C. (title): 3.0 min): 34 ppm
